Source: paper PMC10714930, “In silico virtual screening for the identification of novel inhibitors against dihydrodipicolinate reductase (DapB) of Mycobacterium tuberculosis, a key enzyme of diaminopimelate pathway” (Microbiology Spectrum, 2023)
≈ marks a conversion by molar mass, not a printed value.

Assays:
[1] = target: DapA and DapB (purified enzymes) (Mycobacterium tuberculosis, UniProt P9WP25); format: biochemical; conditions: coupled enzyme assay, Michaelis-Menten plot
M. tb H37Rv [2] = experiment: Checkerboard assay of B59 with B20; format: cell-based, Mycobacterium tuberculosis
M. tb H37Rv [3] = experiment: M. tb whole cell growth inhibition by resazurin microtiter assay; format: cell-based, Mycobacterium tuberculosis
M. tb DapB = M. tb DapB (Mycobacterium tuberculosis, UniProt P9WP23); experiment: Dihydrodipicolinate reductase (DapB)-coupled enzymatic assay; format: biochemical
Experimental: The enzymatic assay of DapB is a coupled assay which requires the upstream enzyme DapA. The formation of tetrahydrodipicolinate by DapB was measured by monitoring conversion of NADPH to NADP^+ spectrophotometrically at 340 nm. The substrate of DapB, i.e., 2,4-dihydrodipicolinic acid, was prepared enzymatically through condensation of Aspartate Semialdehyde [(S)-ASA] and sodium pyruvate by DapA. The standard assay was performed in 50 mM sodium phosphate buffer (pH 7.5) consisting of 400 µM (S)-ASA, 160 µM NADPH, 500 µM sodium pyruvate, 3 µg DapB, and 5 µg DapA in a total reaction volume of 100 µL. […] The decrease in the absorbance of NADPH corresponding to the consumption of substrate was monitored at 340 nm after incubation for 10 minutes at room temperature. […] The activity of DapB in the presence of compounds was measured similarly; however, the enzyme was pre-incubated with the compounds for 10 minutes at 37°C. The percent activity for the samples in the presence of inhibitors was calculated by using a two-step method. Firstly, the absorbance values at 340 nm for each test sample (with or without the inhibitor) were normalized with the negative control (no substrate control). Subsequently, the percent activity was calculated by using the formula (normalized A340nm of inhibitor sample/normalized A340nm of no inhibitor sample) × 100. […]

[4] = system: M. tb H37Rv inside THP-1 macrophages; experiment: Intracellular inhibition assay in THP-1 macrophages; format: cell-based; conditions: Mycobacterium tuberculosis, 120 h, CFU enumeration after 5 days of infection
mycobacterial DapB = system: mycobacterial DapB; design: method as in PMID 12962488; conditions: cited from earlier work

Chain of DapA and DapB (purified enzymes) (P9WP25 whole entry, looked up): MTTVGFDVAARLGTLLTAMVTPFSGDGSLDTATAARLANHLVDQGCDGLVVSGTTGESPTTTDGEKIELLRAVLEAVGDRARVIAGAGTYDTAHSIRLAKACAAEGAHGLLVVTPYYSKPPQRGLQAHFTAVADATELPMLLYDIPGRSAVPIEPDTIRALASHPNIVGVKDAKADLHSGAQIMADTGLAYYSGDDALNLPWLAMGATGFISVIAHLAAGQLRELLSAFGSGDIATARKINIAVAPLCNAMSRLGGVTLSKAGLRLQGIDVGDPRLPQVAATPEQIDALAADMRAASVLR
Chain of M. tb DapB (P9WP23 whole entry, looked up): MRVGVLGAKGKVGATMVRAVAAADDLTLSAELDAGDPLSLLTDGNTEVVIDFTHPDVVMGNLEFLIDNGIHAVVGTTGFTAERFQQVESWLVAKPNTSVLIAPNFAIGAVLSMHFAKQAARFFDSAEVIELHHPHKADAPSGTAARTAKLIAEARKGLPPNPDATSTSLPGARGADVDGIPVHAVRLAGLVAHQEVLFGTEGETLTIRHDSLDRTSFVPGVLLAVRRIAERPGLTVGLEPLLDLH

Q: Which Km [1] does the source give for `N[C@@H](CC=O)C(=O)O` [ASA, L-aspartate-β-semialdehyde] here?
A: 345 µM

Q: Which “fractional inhibitory concentration (FIC)” value (M. tb H37Rv [2]; MIC99 in combination / MIC99 alone) does the source give for `COC(=O)CCCc1nc2ccccc2nc1N=Nc1ccccc1` [Compound B59, 4-(3-Phenylazoquinoxalin-2-yl) butanoic acid methyl ester] here?
A: 0.062

Q: What about the “MIC99 of B59 in combination” value (M. tb H37Rv [2]; in the presence of 20 µg/mL of compound B20) of the same compound?
A: 1.25 µg/mL

Q: What about the “MIC99 exhibited by compounds against M. tb growth” value (M. tb H37Rv [3]; M. tb H37Rv, 7 days, resazurin and drop plating) of the same compound?
A: 20 µg/mL (≈ 59.8 µM)

Q: What about the MIC99 (M. tb H37Rv [3]; Mycobacterium tuberculosis, 168 h, M. tb H37Rv, 7 days, resazurin and drop plating, read-out: MIC99 exhibited by compounds against M. tb growth) of the same compound?
A: 20 µg/mL (≈ 59.8 µM)

Q: What about the “effect on bacterial growth by CFU enumeration” value (M. tb H37Rv [3]; at 0.5X MIC99 and 0.25X MIC99) of the same compound?
A: inhibition of the bacterial growth

Q: And the IC50 (M. tb DapB; IC50 exhibited by compounds in biochemical assay, DapB enzymatic activity, compounds 10-100 µg/mL)?
A: 32.9 µM

Q: And the inhibition at 100 µg/mL (M. tb DapB; at 100 µg/mL, read-out: inhibition of DapB enzyme activity)?
A: > 80%

Q: What about the MIC90 [4] of the same compound?
A: 73 µg/mL (≈ 218 µM)

Q: With `NC(=O)C1=CN([C@@H]2O[C@H](COP(=O)(O)OP(=O)(O)OC[C@H]3O[C@@H](n4cnc5c(N)ncnc54)[C@H](O)[C@@H]3O)[C@@H](O)[C@H]2O)C=CC1` [NADH] as the compound, how does the Km (mycobacterial DapB) read?
A: 3.2 ± 0.4 µM

Q: For `NC(=O)C1=CN([C@@H]2O[C@H](COP(=O)(O)OP(=O)(O)OC[C@H]3O[C@@H](n4cnc5c(N)ncnc54)[C@H](OP(=O)(O)O)[C@@H]3O)[C@@H](O)[C@H]2O)C=CC1` [NADPH], which Km (mycobacterial DapB) is on record?
A: 11.8 ± 1.5 µM

Q: Which Km [1] does the source give for `CC(=O)C(=O)O` [sodium pyruvate] here?
A: 125 µM
